Experimental data: publication PMC8205226, “HIV-1 Integrase Inhibitors with Modifications That Affect Their Potencies against Drug Resistant Integrase Mutants” (ACS Infectious Diseases, 2021)
Like-named read-outs stand apart in the source and are kept apart here.

How the values were obtained:
HIV-1 IN mutant Y143R = assay: single-round infectivity assay, Y143R IN mutant; type: cell-based; settings: EC50 compound / EC50 DTG
Method: (§1) Figure 2 Antiviral activities of the new compounds against RAL-resistant mutants. The EC50 values were determined using a vector that carries WT HIV-1 IN and the RAL-resistant mutants in a single round infection assay. […] Error bars represent the standard deviations of independent experiments, n = 4, performed in triplicate. The graph has a maximum value of 550 nM.
(§2) WT and mutant HIV-1 viral vectors were used in single-round infectivity assays to determine the antiviral potencies (EC50 values) of the compounds and the effects of the mutants on the EC50 values as previously described.[30],[54] Single round infectivity measurements were determined as done previously.[38]
(§3) The vector pNLNgoMIVR-ΔENV.LUC has been described previously.[26] To produce the new IN mutants used in this study, the IN open reading frame was removed from pNLNgoMIVR-ΔENV.LUC by digestion with KpnI and SalI, and the resulting fragment was inserted between the KpnI and SalI sites of pBluescript KS+. Using that construct as the wild-type template, we prepared the following HIV-1 IN mutants using the QuikChange II XL site directed mutagenesis kit (Agilent Technologies, Santa Clara, CA) protocol: N117A, N117H, P142A, P142H, P142S, Y143C, Y143H, S230R, R231G, and R231K. The following sense oligonucleotides were used with matching cognate antisense oligonucleotides (not shown) (Integrated DNA Technologies, Coralville, IA) in the mutagenesis: N117A, 5′-[…]-3′; N117H, 5′-[…]-3′; P142A, 5′-[…]-3′; P142H, 5′-[…]-3′; P142S, 5′-[…]-3′; Y143C, 5′- […]-3′; Y143H, 5′-[…]-3′; S230R, 5′- […]-3′; R231G, 5′-[…]-3′; R231K, 5′-[…]-3′.

HIV-1 IN mutant N155H = assay: single-round infectivity assay, N155H IN mutant; type: cell-based; settings: EC50 compound / EC50 DTG
Method: as §1, §2, §3

[1] = tested on: HIV-1 IN double mutant G140S/Q148H; assay: single-round infectivity assay, G140S/Q148H IN double mutant; type: cell-based; settings: EC50 compound / EC50 DTG
Method: as §1, §2, §3

HIV-1 IN mutant N117A = assay: single-round infectivity assay, N117A IN mutant; type: cell-based
Method: (§4) The EC50 values were determined using a vector that carries the IN mutant in a single round infection assay. […] Error bars represent the standard deviations of independent experiments, n = 4, performed in triplicate.
as §2, §3

HIV-1 IN mutant N117H = assay: single-round infectivity assay, N117H IN mutant; type: cell-based
Method: as §4, §2, §3

HIV-1 IN mutant G118R [2] = assay: single-round infectivity assay, G118R IN mutant; type: cell-based
Method: as §4, §2, §3

HIV-1 IN mutant S119R = assay: single-round infectivity assay, S119R IN mutant; type: cell-based
Method: as §4, §2, §3

HIV-1 IN mutant Y143C = assay: single-round infectivity assay, Y143C IN mutant; type: cell-based
Method: (§5) Figure 4 Mutations in the β5-α3 loop affect the antiviral potencies of the new compounds. The EC50 values were determined using a vector that carries the IN mutant in a single round infection assay. […] Error bars represent the standard deviations of independent experiments, n = 4, performed in triplicate.
as §2, §3

HIV-1 IN mutant Y143H = assay: single-round infectivity assay, Y143H IN mutant; type: cell-based
Method: as §5, §2, §3

HIV-1 IN mutant P142A = assay: single-round infectivity assay, P142A IN mutant; type: cell-based
Method: as §5, §2, §3

HIV-1 IN mutant P142H = assay: single-round infectivity assay, P142H IN mutant; type: cell-based
Method: as §4
Single round infectivity measurements were determined as done previously.[38]
as §3

HIV-1 IN mutant P142S = assay: single-round infectivity assay, P142S IN mutant; type: cell-based
Method: as §5, §2, §3

HIV-1 IN mutant S230R = assay: single-round infectivity assay, S230R IN mutant; type: cell-based
Method: (§6) Figure 5 Antiviral potencies of the new compounds against IN with mutations in the […]. The EC50 values were determined using a vector that carries the IN mutant in a single round infection assay. […] Error bars represent the standard deviations of independent experiments, n = 4, performed in triplicate.
as §2, §3

HIV-1 IN mutant R231G = assay: single-round infectivity assay, R231G IN mutant; type: cell-based
Method: as §6, §2, §3

HIV-1 IN mutant R231K = assay: single-round infectivity assay, R231K IN mutant; type: cell-based
Method: as §6, §2, §3

WT HIV-1 = settings: vector carrying WT HIV-1 IN, single round infection; previously reported; cited from earlier work
[3] = tested on: HIV-1 IN double mutant G140S/Q148H; settings: single round infection; previously reported; cited from earlier work
HIV-1 IN mutant G118R [4] = settings: single round infection; previously shown; cited from earlier work
[5] = fold change in EC50, IN mutant versus WT HIV-1

For `Nc1c(C(=O)NCc2ccc(F)cc2F)c(=O)n(O)c2ncc(CCS(=O)(=O)c3ccccc3)cc12` [4f], the “ratio of the EC50s (our compound relative to DTG) against Y143R” value (HIV-1 IN mutant Y143R) was 0.1, the “ratio of the EC50s (our compound relative to DTG) against N155H” value (HIV-1 IN mutant N155H) was 0.6 and the “ratio of the EC50s (our compound relative to DTG) against G140S/Q148H” value [1] was 0.9. For the same compound, the EC50 (HIV-1 IN mutant N117A; Human immunodeficiency virus 1, read-out: EC50 values N117A) was 0.8 nM, the “FC N117A” value (HIV-1 IN mutant N117A; [5]) was 0.4 and the “ratio of the EC50s (our compound relative to DTG) against N117H” value (HIV-1 IN mutant N117H; EC50 compound / EC50 DTG) was 1.1. For the same compound, the EC50 (HIV-1 IN mutant N117H; Human immunodeficiency virus 1, read-out: EC50 values N117H) was 2.7 nM, the “FC N117H” value (HIV-1 IN mutant N117H; [5]) was 1.4 and the “ratio of the EC50s (our compound relative to DTG) against G118R” value (HIV-1 IN mutant G118R [2]; EC50 compound / EC50 DTG) was 0.9. The “FC G118R” value (HIV-1 IN mutant G118R [2]; [5]) was 5.7, the “ratio of the EC50s (our compound relative to DTG) against S119R” value (HIV-1 IN mutant S119R; EC50 compound / EC50 DTG) was 1.1 and the EC50 (HIV-1 IN mutant S119R; Human immunodeficiency virus 1, read-out: EC50 values S119R) was 2.6 ± 0.4 nM. The “FC S119R” value (HIV-1 IN mutant S119R; [5]) was 1.3, the “ratio of the EC50s (our compound relative to DTG) against Y143C” value (HIV-1 IN mutant Y143C; EC50 compound / EC50 DTG) was 1.2 and the EC50 (HIV-1 IN mutant Y143C; Human immunodeficiency virus 1, read-out: EC50 values Y143C, single round infection, n = 4) was 1.7 ± 0.4 nM. For the same compound, the “FC Y143C” value (HIV-1 IN mutant Y143C; [5]) was 0.9, the EC50 (HIV-1 IN mutant Y143C; read-out: EC50 values Y143C, single round infection, n = 4) was < 3 nM and the “ratio of the EC50s (our compound relative to DTG) against Y143H” value (HIV-1 IN mutant Y143H; EC50 compound / EC50 DTG) was 1.0. For the same compound, the EC50 (HIV-1 IN mutant Y143H; Human immunodeficiency virus 1, read-out: EC50 values Y143H, single round infection, n = 4) was 2.3 ± 0.1 nM, the “FC Y143H” value (HIV-1 IN mutant Y143H; [5]) was 1.2 and the EC50 (HIV-1 IN mutant Y143H; read-out: EC50 values Y143H, single round infection, n = 4) was < 3 nM. The “ratio of the EC50s (our compound relative to DTG) against P142A” value (HIV-1 IN mutant P142A; EC50 compound / EC50 DTG) was 1.1, the EC50 (HIV-1 IN mutant P142A; Human immunodeficiency virus 1, read-out: EC50 values P142A) was 2.8 ± 0.1 nM and the “FC P142A” value (HIV-1 IN mutant P142A; [5]) was 1.4. The “ratio of the EC50s (our compound relative to DTG) against P142H” value (HIV-1 IN mutant P142H; EC50 compound / EC50 DTG) was 0.6, the EC50 (HIV-1 IN mutant P142H; Human immunodeficiency virus 1, read-out: EC50 values P142H) was 1.7 ± 0.2 nM and the “FC P142H” value (HIV-1 IN mutant P142H; [5]) was 0.9. For the same compound, the “ratio of the EC50s (our compound relative to DTG) against P142S” value (HIV-1 IN mutant P142S; EC50 compound / EC50 DTG) was 0.7, the EC50 (HIV-1 IN mutant P142S; Human immunodeficiency virus 1, read-out: EC50 values P142S) was 1.5 ± 0.3 nM and the “FC P142S” value (HIV-1 IN mutant P142S; [5]) was 0.8. The “ratio of the EC50s (our compound relative to DTG) against S230R” value (HIV-1 IN mutant S230R; EC50 compound / EC50 DTG) was 1.0, the EC50 (HIV-1 IN mutant S230R; Human immunodeficiency virus 1, read-out: EC50 values S230R) was 4.8 ± 0.3 nM and the “FC S230R” value (HIV-1 IN mutant S230R; [5]) was 2.4. The “ratio of the EC50s (our compound relative to DTG) against R231G” value (HIV-1 IN mutant R231G; EC50 compound / EC50 DTG) was 1.4, the EC50 (HIV-1 IN mutant R231G; Human immunodeficiency virus 1, read-out: EC50 values R231G) was 2 ± 0.2 nM and the “FC R231G” value (HIV-1 IN mutant R231G; [5]) was 1.0. For the same compound, the “ratio of the EC50s (our compound relative to DTG) against R231K” value (HIV-1 IN mutant R231K; EC50 compound / EC50 DTG) was 0.8, the EC50 (HIV-1 IN mutant R231K; Human immunodeficiency virus 1, read-out: EC50 values R231K, single round infection, n = 4) was 3.3 ± 0.2 nM and the EC50 (HIV-1 IN mutant R231K; read-out: EC50 values R231K, single round infection, n = 4) was < 5 nM. For the same compound, the EC50 (WT HIV-1) was 2 ± 0.1 nM, the EC50 [3] was 5.2 ± 0.3 nM and the EC50 (HIV-1 IN mutant G118R [4]) was 11.4 ± 3.5 nM.
